# Key:
# acute viral hepatitis = experiment: Effect of piracetam on patients exhibiting acute viral hepatitis; format: in vivo
# Protocol: 110 patients with acute hepatitis, hospitalised from the first or the second week of icterus, were included in the study. All patients were assigned to rest, and received diet and vitamins.
# A first group received piracetam at a daily dose of 2.4 g (3×0.8 g/day), a second group received no piracetam and acted as control group. The main parameters were serum bilirubine and transaminases, measured once a week during the whole icterus period.
# Inclusion criteria were bilirubine ([…]) (N<0.3) and transaminases (>400 U) (N<40).
# The criteria for a positive response were bilirubine <1.5 mg/dl and transaminases <100 U.
# [1] = system: SUP-Ti cells presenting CD4 receptors; experiment: formation of syncitia by fusion of infected cells with uninfected neighbouring cells, SUP-Ti cells; format: cell-based, HIV; settings: CD4 receptor present, accordingly to the doses used
# Source text: (§1) HV has the property on cultured cells to provoke the formation of syncitia by fusion of infected cells with uninfected neighboring cells, when the virus ends its replication.
# (§2) Virus have become remarkably opportunistic in exploring whatever complicated shapes they may find on the host cell surface as binding receptors (e.g. CD4, CXCR4, CCR5, CKR-5, CKR-3).
# (§3) This study therefore investigated the ability of piracetam to inhibit the formation of syncitia, […], the primary binding receptor of HIV. For this purpose, two cultures of cells were used, A-201 cells devoid of CD4 receptors and SUP-Ti cells presenting CD4 receptors.
# [2] = molecular target: T1, Alzheimer's β-amyloid tilted peptide 29-40 (Homo sapiens, UniProt P05067); experiment: fusion process induced by Alzheimer's β-amyloid tilted peptide 29-40 on membrane models; settings: amyloid peptide 29-40
# T1 construct: two Alzheimer's β-amyloid tilted peptides (29-40 and 29-42) on membrane models
# Protocol: (§4) Four fundamental studies using different tools such as conformational analysis, biophysical methods, NMR and two-hybrid assay were carried out.
# [3] = molecular target: T2, Alzheimer's β-amyloid tilted peptide 29-42 (Homo sapiens, UniProt P05067); experiment: fusion process induced by Alzheimer's β-amyloid tilted peptide 29-42 on membrane models; settings: amyloid peptide 29-42
# T2 construct: two Alzheimer's β-amyloid tilted peptides (29-40 and 29-42) on membrane models
# Protocol: as §4
# hepatitis C virus (HCV) = experiment: Effect of piracetam on patients exhibiting chronic C virus hepatitis; format: in vivo
# Source text: 6 patients with chronic transfusion associated hepatitis C virus (HCV) received 6 months therapy with piracetam at a daily dose of 10.8 g (3×3.6 g/d) with no other treatment associated. This was followed by a 3 months period of no treatment. All patients, interferon non-responders, had chronic hepatitis from 6 to 19 years. The main criterion of efficacy was serum viral load (HCV-RNA) performed by polymerase chain reaction (PCR) at 0, 3, 6 and 9 months. These patients had manifested a gradual rise in their HCV-RNA. Thus, the criteria for no response was defined as no change in the increase of HCV-RNA, a positive response as a status quo of serum HVC-RNA and a significant response as a decrease of at least half a log of HCV-RNA.
# [4] = system: herpes simplex virus 1 (HSV1); settings: Vero cells culture, in vitro; cited from earlier work
# [5] = molecular target: T3, titled peptide of HUV-wt (wild type)(16 AA) (Human immunodeficiency virus type 1 group M subtype B, UniProt P04578); experiment: fusion of large unilamellar vesicles (LUV) provoked by tilted peptide of HUV-wt; set-up: species or system HIV; settings: at the doses tested
# T3 construct: titled peptide of HUV-wt (wild type)(16 AA)
# [6] = molecular target: titled peptide of SIV-wt (12AA) (Simian immunodeficiency virus, UniProt P05885); experiment: fusion of large unilamellar vesicles (LUV) provoked by tilted peptide of SIV-wt; settings: at the doses tested
# [7] = system: A-201 cells devoid of CD4 receptors; experiment: formation of syncitia by fusion of infected cells with uninfected neighbouring cells, A-201 cells; format: cell-based, HIV; settings: no CD4 receptor, accordingly to the doses used
# Source text: as §1, §2, §3
# viral tilted peptide = experiment: fusion process induced on LUV by the viral tilted peptide (analogues); settings: at the doses tested
# Source text: The same in vitro study as in Example 1 was used to investigate two analogues (levetiracetam and (R)-(−)-alpha-ethyl-2-oxo-1-pyrrolidine acetamide) in comparison with piracetam.
# [8] = patients receiving piracetam from the first week of icterus
# [9] = piracetam introduced after incubation of peptide with liposomes, whatever the dose
# [10] = preincubation of piracetam before addition of the peptide
structure (smiles),measurement,setting,value
"NC(=O)CN1CCCC1=O [piracetam, 2-oxo-pyrrolidineacetamide]",Clinical tolerance,"acute viral hepatitis; acute hepatitis patients, 2.4 g daily (3×0.8 g/day)",excellent
same,reduction of the icterus phase,"acute viral hepatitis; compared to the control group, except for 6 patients out of 49",50%
same,evolution in serum bilirubine levels,acute viral hepatitis; [8],positive evolution was especially observed
same,evolution in serum transaminases,acute viral hepatitis; [8],more pronounced
same,bilirubine levels,acute viral hepatitis; patients receiving piracetam from the second week of icterus,not significantly reduced
same,evolution in serum transaminases,"acute viral hepatitis; patients receiving piracetam, 2.4 g daily","favourable, although non-significant"
same,evolution in serum bilirubine levels,"acute viral hepatitis; piracetam group vs control group, 2.4 g daily, p<0.0003",very highly significantly reduced
same,inhibition of the formation of syncitia,[1],inhibited
same,inhibition of the fusion process on membrane models,[2]; four studies overall,inhibit the fusion process
same,inhibition of the fusion process,[2]; [9],not able to inhibit
same,inhibition of the fusion process,[2]; [10],inhibits almost completely
same,inhibition of the fusion process on membrane models,[3]; four studies overall,inhibit the fusion process
same,inhibition of the fusion process,[3]; [9],not able to inhibit
same,inhibition of the fusion process,[3]; [10],inhibits almost completely
same,Clinical tolerance,"hepatitis C virus (HCV); chronic HCV patients, 10.8 g daily (3×3.6 g/d), 6 months",excellent
same,change of serum HCV-RNA,"hepatitis C virus (HCV); four of 6 patients, PCR, 10.8 g daily",decrease
same,decrease of serum HCV-RNA,"hepatitis C virus (HCV); the patient most recently infected (6 years), significant",< 0.6 log
same,increase of serum HCV-RNA,"hepatitis C virus (HCV); two of 6 patients, PCR, 10.8 g daily",< 10%
same,ability to stop the replication of HSV1,[4],stop the replication
same,inhibition of the fusion of LUV,[5],inhibits the fusion of LUV
same,inhibition of the fusion of LUV,[6],inhibits the fusion of LUV
same,inhibition of the formation of syncitia,[7],inhibited
"CC[C@@H](C(N)=O)N1CCCC1=O [levetiracetam, (S)-α-ethyl-2-oxo-1-pyrrolidineacetamide]",inhibitory effect on the fusion process induced on LUV,viral tilted peptide,very clear inhibitory effect
CC[C@H](C(N)=O)N1CCCC1=O [(R)-(−) alpha-ethyl-2-oxo-1-pyrrolidineacetamide],inhibitory effect on the fusion process induced on LUV,viral tilted peptide,very clear inhibitory effect

# Source: US20040092575A1, “Use of certain substituted pyrrolidones such as piracetam in the treatment of viral and other diseases” (priority 2001, published 2004)
